Measurements published in patent US20240254121A1, “ALKYLAMIDE SUBSTITUTED, ANNULATED IMIDAZOLES AND USE THEREOF AS INSECTICIDES” (Bayer Aktiengesellschaft, priority 2021, published 2024).

How the values were obtained:
Type in all cases: in vivo
[1] = test system: green peach aphid (Myzus persicae); test: Myzus persicae spray test; conditions: foliar, 120 h, Chinese cabbage leaf disks, after 5 days
Experimental: Myzus persicae—Spray Test • Solvent: 78.0 parts by weight acetone • 1.5 parts by weight dimethylformamide • Emulsifier: alkylarylpolyglycol ether
(§1) To produce a suitable preparation of active compound, 1 part by weight of active compound is mixed with the stated amount of solvents and is diluted with water, containing an emulsifier concentration of 1000 ppm, to the desired concentration. Further test concentrations are prepared by dilution with emulsifier containing water.
Chinese cabbage (Brassica pekinensis) leaf disks infected with all instars of the green peach aphid (Myzus persicae), are sprayed with a preparation of the active ingredient of the desired concentration.
(§2) After 5 days mortality in % is determined. 100% means all aphids have been killed and 0% means none of the aphids have been killed.

[2] = test system: cotton aphid (Aphis gossypii); test: Aphis gossypii oral test; conditions: 120 h, after 5 days
Experimental: Aphis gossypii—Oral Test • Solvent: 100 Parts by Weight Acetone
(§3) To produce a suitable preparation of active compound, 1 part by weight of active compound is mixed with the stated amount of solvent, and the concentrate is diluted with water to the desired concentration.
50 μL compound solution is filled in microtiter plates and 150 μL IPL41 insect medium (33%+15% sugar) is added to obtain a total volume of 200 μL per well. Afterwards the plates are sealed with parafilm through which a mixed population of the cotton aphid (Aphis gossypii) can suck on the compound preparation.
as §2

[3] = test system: larvae of the banded cucumber beetle (Diabrotica balteata); test: Diabrotica balteata spray test; conditions: 168 h, 100 g/ha (=32 μg/well), wheat seeds, after 7 days, read-out: efficacy (seedling growth)
Experimental: Diabrotica Balteata—Spray Test
• Solvent: 78.0 Parts by Weight of Acetone • 1.5 parts by weight of dimethylformamide • Emulsifier: Alkylarylpolyglycol Ether
(§4) To produce a suitable preparation of active compound, 1 part by weight of active compound is mixed with the stated amount of solvent, and the concentrate is diluted with water, containing an emulsifier concentration of 1000 ppm, to the desired concentration. Further test concentrations are prepared by dilution with emulsifier containing water.
Soaked wheat seeds (Triticum aestivum) are placed in a multiple well plate filled with agar and some water and are incubated for 1 day to germinate (5 seeds per well). The germinated wheat seeds are sprayed with a test solution containing the desired concentration of the active ingredient. Afterwards each unit is infected with 10-20 larvae of the banded cucumber beetle (Diabrotica balteata).
After 7 days efficacy in % is determined. 100% means all the seedlings have grown up like in the untreated, uninfected control; 0% means none of the seedlings have grown.

[4] = test system: cattle tick larvae (Rhipicephalus microplus); test: Rhipicephalus (Boophilus) microplus in-vitro contact test, larval cattle tick (strain Parkhurst, resistant against synthetic pyrethroids); conditions: 1 μg/cm^2 (=100 g/ha), after 48 hours, read-out: efficacy (larvae dead or moribund)
Experimental: Rhipicephalus (Boophilus) Microplus—In-Vitro Contact Tests Larval Cattle Tick (Strain Parkhurst, Resistant Against Synthetic Pyrethroids)
(§5) 9 mg compound is solved in 1 mL acetone and diluted with acetone to the desired concentration. 250 μL of the test solution is filled in 25 mL glass test tubes and homogeneously distributed on the inner walls by rotation and tilting on a shaking device (2 h at 30 rpm). With a compound concentration of 900 ppm, an inner surface of 44.7 cm^2 and a homogeneous distribution, a dose of 5 μg/cm^2 is achieved.
After the solvent has evaporated, each test tube is filled with 20-50 cattle tick larvae (Rhipicephalus microplus), closed with a perforated lid and incubated in a horizontal position at 85% relative humidity and 27° C. in an incubator. After 48 hours efficacy is determined. The larvae are patted on the ground of the tubes and negative geotactic behavior is recorded.
An efficacy of 100% means all larvae are dead or moribund; 0% means no larvae are dead or moribund.

[5] = test system: green peach aphid (Myzus persicae); test: Myzus persicae oral test; conditions: 120 h, after 5 days
Experimental: Myzus persicae—Oral Test • Solvent: 100 parts by weight acetone
as §3
50 μL compound solution is filled in microtiter plates and 150 μL IPL41 insect medium (33%+15% sugar) is added to obtain a total volume of 200 μL per well. Afterwards the plates are sealed with parafilm through which a mixed population of the green peach aphid (Myzus persicae) can suck on the compound preparation.
as §2

[6] = test system: fall armyworm larvae (Spodoptera frugiperda); test: Spodoptera frugiperda spray test; conditions: 168 h, maize leaf sections, after 7 days
Experimental: Spodoptera frugiperda—Spray Test • Solvent: 78.0 parts by weight acetone • 1.5 parts by weight dimethylformamide • Emulsifier: alkylarylpolyglycol ether
as §1
Maize (Zea mays) leaf sections are sprayed with a preparation of the active ingredient of the desired concentration. Once dry, the leaf sections are infested with fall armyworm larvae (Spodoptera frugiperda).
After 7 days mortality in % is determined. 100% means all caterpillars have been killed and 0% means none of the caterpillars have been killed.

[7] = test system: adult flies Musca domestica strain WHO-N; test: Musca domestica test (MUSCDO surface treatment & contact assay); conditions: 24 hours after contact, read-out: efficacy (mortality); for mortality at 20 mg/m2: surface concentration 20 mg/m^2, 30 minutes exposure; for mortality at 4 mg/m2: surface concentration 4 mg/m^2, 30 minutes exposure
Experimental: Musca domestica Test (MUSCDO Surface Treatment & Contact Assay) • Solvent: Aceton+2000 ppm rapeseed oil methyl ester (RME)
In order to produce a sufficient, active ingredient containing solution it is necessary to solve the test compound in the solvent-mix (acetone at 2 mg/ml/RME 2000 ppm). This solution is pipetted onto a glazed tile and after evaporation of the acetone, adult flies of the species Musca domestica strain WHO-N are placed onto the dried surface. The exposure time is 30 minutes. Mortality in percent (%) is determined 24 hours after contact of the insects to the treated surface. 100% mortality means that all tested insects are dead, whereas 0% means that no insect died.

[8] = test system: adult brown dog ticks (Rhipicephalus sanguineus); test: Rhipicephalus sanguineus in-vitro contact test with adult brown dog ticks; conditions: 1 μg/cm^2 (=100 g/ha), after 48 hours
Experimental: Rhipicephalus sanguineus—In-Vitro Contact Tests with Adult Brown Dog Ticks
as §5
After the solvent has evaporated, each test tube is filled with 5-10 adult brown dog ticks (Rhipicephalus sanguineus), closed with a perforated lid and incubated in a lying position at room temperature and relative humidity. After 48 hours efficacy is determined. The ticks are patted on the ground of the tubes and are incubated on a heating plate at 45-50° C. for at most 5 minutes. Immotile or uncoordinated moving ticks, which are not able to escape the heat by climbing upwards, are marked as dead or moribund.
An efficacy of 100% means all ticks are dead or moribund; 0% means no ticks are dead or moribund.

[9] = test system: brown planthopper (Nilaparvata lugens); test: Nilaparvata lugens spray test; conditions: 96 h, rice plants, after 4 days
Experimental: Nilaparvata lugens—Spray Test • Solvent: 78.0 parts by weight of acetone • 1.5 parts by weight of dimethylformamide • Emulsifier: alkylarylpolyglycol ether
as §1
Rice plants (Oryza sativa) are sprayed with a preparation of the active ingredient of the desired concentration and the plants are infested with the brown planthopper (Nilaparvata lugens).
After 4 days mortality in % is determined. 100% means all planthoppers have been killed and 0% means none of the planthoppers have been killed.

[10] = test system: adult mosquitoes Aedes aegypti strain MONHEIM; test: Aedes aegypti test (AEDSAE surface treatment & contact assay); conditions: 24 hours after contact, read-out: efficacy (mortality); for mortality at 20 mg/m2: surface concentration 20 mg/m^2, 30 minutes exposure; for mortality at 4 mg/m2: surface concentration 4 mg/m^2, 30 minutes exposure
Experimental: Aedes aegypti Test (AEDSAE Surface Treatment & Contact Assay) • Solvent: Aceton+2000 ppm rapeseed oil methyl ester (RME)
In order to produce a sufficient, active ingredient containing solution it is necessary to solve the test compound in the solvent-mix (acetone at 2 mg/ml/RME 2000 ppm). This solution is pipetted onto a glazed tile and after evaporation of the acetone, adult mosquitoes of the species Aedes aegypti strain MONHEIM are placed onto the dried surface. The exposure time is 30 minutes. Mortality in percent (%) is determined 24 hours after contact of the insects to the treated surface. 100% mortality means that all tested insects are dead, whereas 0% means that no insect died.

[11] = test system: larvae of the southern green stink bug (Nezara viridula); test: Nezara viridula spray test; conditions: 96 h, barley plants, after 4 days
Experimental: Nezara viridula—Spray Test • Solvent: 78.0 parts by weight of acetone • 1.5 parts by weight of dimethylformamide • Emulsifier: alkylarylpolyglycol ether
as §4
Barley plants (Hordeum vulgare) are sprayed with a test solution containing the desired concentration of the active ingredient and are infested with larvae of the southern green stink bug (Nezara viridula).
After 4 days mortality in % is determined. 100% means all the stink bugs have been killed; 0% means none of the stink bugs have been killed.

[12] = test system: adult mosquitoes Culex quinquefasciatus strain P00; test: Culex quinquefasciatus test (CULXFA surface treatment & contact assay); conditions: 24 hours after contact, read-out: efficacy (mortality); for mortality at 4 mg/m2: surface concentration 4 mg/m^2, 30 minutes exposure; for mortality at 20 mg/m2: surface concentration 20 mg/m^2, 30 minutes exposure
Experimental: Culex quinquefasciatus Test (CULXFA Surface Treatment & Contact Assay) • Solvent: Aceton+2000 ppm rapeseed oil methyl ester (RME)
In order to produce a sufficient, active ingredient containing solution it is necessary to solve the test compound in the solvent-mix (acetone at 2 mg/ml/RME 2,000 ppm). This solution is pipetted onto a glazed tile and after evaporation of the acetone, adult mosquitoes of the species Culex quinquefasciatus strain P00 are placed onto the dried surface. The exposure time is 30 minutes. Mortality in percent (%) is determined 24 hours after contact of the insects to the treated surface. 100% mortality means that all tested insects are dead, whereas 0% means that no insect died.

## CC(NC(=O)c1cc(OC(F)(F)F)cc(OC(F)(F)F)c1)c1nc2cccnc2n1-c1ccc(Cl)cn1 (stereo not shown) [Example I-9]
[1]; 500 g/ha
  mortality at 500 g/ha: 90%
[2]
  mortality at 100 ppm: 100%
[3]
  pest or weed control at 32 µg/disc, 100 g/ha: 100%
[4]
  pest or weed control at 1 µg/cm2, 100 g/ha: 80%
[5]
  mortality at 20 ppm: 100%
[6]
  mortality at 100 g/ha: 100%
[7]
  mortality at 20 mg/m2: 80 to 100%

## CC(NC(=O)c1cc(OC(F)(F)F)cc(C2CC2)c1)c1nc2cccnc2n1-c1ccc(Cl)cn1 (stereo not shown) [Example I-13]
[4]
  pest or weed control at 1 µg/cm2, 100 g/ha: 90%
[8]
  efficacy (ticks dead or moribund): 80%

## CC(NC(=O)c1cc(C(F)(F)F)cc(C(F)(F)F)c1)c1nc2cccnc2n1-c1ccc(C(=O)N(C)C)cn1 (stereo not shown) [Example I-26, 6-(2-{1-[3,5-bis(trifluoromethyl)benzamido]ethyl}-3H-imidazo[4,5-b]pyridin-3-yl)-N,N-dimethylnicotinamide]
[1]
  mortality at 100 g/ha: 90%
[9]
  mortality at 500 g/ha: 100%
[10]
  mortality at 20 mg/m2: 80 to 100%

## CC(NC(=O)c1cc(Cl)cc(S(C)(=O)=O)c1)c1nc2cccnc2n1-c1ccc(Cl)cn1 (stereo not shown) [Example I-10]
[2]
  mortality at 100 ppm: 100%
[5]
  mortality at 20 ppm: 100%
[6]
  mortality at 100 g/ha: 100%
[11]
  mortality at 500 g/ha: 100%
[12]
  mortality at 4 mg/m2: 80 to 100%
[10]
  mortality at 4 mg/m2: 80 to 100%
  mortality at 20 mg/m2: 80 to 100%

## C[C@H](NC(=O)c1cc(OC(F)(F)F)cc(S(C)(=O)=O)c1)c1nc2cccnc2n1-c1ccc(C#N)cn1 [Example I-4]
[2]
  mortality at 100 ppm: 100%
[3]
  pest or weed control at 32 µg/disc, 100 g/ha: 100%
[5]
  mortality at 20 ppm: 100%
[6]
  mortality at 100 g/ha: 100%
[9]
  mortality at 500 g/ha: 90%
[11]
  mortality at 500 g/ha: 100%
[10]
  mortality at 4 mg/m2: 80 to 100%

## CC(NC(=O)c1cc(OC(F)F)cc(OC(F)F)c1)c1nc2cccnc2n1-c1ccc(C#N)cn1 (stereo not shown) [Example I-40]
[3]
  pest or weed control at 32 µg/disc, 100 g/ha: 100%
[6]
  mortality at 100 g/ha: 100%
[9]
  mortality at 500 g/ha: 90%
[7]
  mortality at 4 mg/m2: 80 to 100%
  mortality at 20 mg/m2: 80 to 100%
[10]
  mortality at 4 mg/m2: 80 to 100%
  mortality at 20 mg/m2: 80 to 100%

## COC(=O)c1ccc(-n2c(C(C)NC(=O)c3cc(OC(F)(F)F)cc(S(C)(=O)=O)c3)nc3cccnc32)nc1 (stereo not shown) [Example I-24]
[2]
  mortality at 100 ppm: 100%
[5]
  mortality at 20 ppm: 100%
[12]
  mortality at 4 mg/m2: 80 to 100%
  mortality at 20 mg/m2: 80 to 100%
[10]
  mortality at 4 mg/m2: 80 to 100%
  mortality at 20 mg/m2: 80 to 100%

## CC(NC(=O)c1cc(C(F)(F)F)cc(C(F)(F)F)c1)c1nc2cccnc2n1-c1ccc(C#N)cn1 (stereo not shown) [Example I-35]
[1]
  mortality at 100 g/ha: 100%
[3]
  pest or weed control at 32 µg/disc, 100 g/ha: 100%
[6]
  mortality at 100 g/ha: 100%
[7]
  mortality at 4 mg/m2: 80 to 100%
  mortality at 20 mg/m2: 80 to 100%
[12]
  mortality at 20 mg/m2: 80 to 100%
[10]
  mortality at 4 mg/m2: 80 to 100%
  mortality at 20 mg/m2: 80 to 100%

## CC(NC(=O)c1cc(C(F)(F)F)cc(C(F)(F)F)c1)c1nc2cccnc2n1-c1ccc(Cl)cn1 (stereo not shown) [Example I-8]
[3]
  pest or weed control at 32 µg/disc, 100 g/ha: 100%
[4]
  pest or weed control at 1 µg/cm2, 100 g/ha: 100%
[6]
  mortality at 100 g/ha: 100%
[7]
  mortality at 20 mg/m2: 80 to 100%
[8]
  efficacy (ticks dead or moribund): 80%
[10]
  mortality at 20 mg/m2: 80 to 100%

## C[C@H](NC(=O)c1cc(C(F)F)n(C)n1)c1nc2cccnc2n1-c1ccc(C#N)cn1 [Example I-17]
[8]
  efficacy (ticks dead or moribund): 100%

## C[C@H](NC(=O)c1cc(C#N)cc(C2(C#N)CC2)c1)c1nc2cccnc2n1-c1ccc(C#N)cn1 [Example I-6]
[1]
  mortality at 100 g/ha: 90%
[4]
  pest or weed control at 1 µg/cm2, 100 g/ha: 90%
[6]
  mortality at 100 g/ha: 100%
[10]
  mortality at 4 mg/m2: 80 to 100%
